Laboratory results published in patent US6365379B1, “Zinc finger peptide cleavage of nucleic acids” (ISIS Pharmaceuticals, Inc., priority 1998, dated 2002).

Key:
Assay type in all cases: biochemical
[1] = system: Single strand DNA, double strand RNA and DNA, and 2′-methoxy modified sequences; assay: Cleavage selectivity against other nucleic acids
Procedure: (§1) Initial rates of cleavage of several single stranded oligonucleotides were determined as described in connection with FIG. 1 with the exception that 50 nM wild-type peptide and 500 nM oligonucleotide were used. Arrows indicate the position of the peptide induced cleavage. The relative intensity of the cleavage product for each respective cleavage sites is indicated by the length of the arrows.

[2] = system: 9713 (RNA) 20-mer RNA oligonucleotide, Seq. I.D. No. 7; assay: Initial rate of cleavage of single stranded oligonucleotide by the peptides; set-up: unit not given here
Procedure: (§2) FIG. 1A depicts the Kinetics of RNA Cleavage by the Finger Peptide of Seq. I.D. No. 1. Multiple turnover kinetics are shown for RNA cleavage by the wild-type peptide (open box) and wild-type peptide coordinated with zinc (open triangle). […] I.D. No. 1. Multiple turnover kinetics were performed in 100 μL containing 50 nM peptide, 100 to 1000 nM or a 20—mer RNA oligonucleotide denominated 9713 and having Seq. I.D. No. 7, as […] 32P labeled RNA in 20 mM Sodium Phosphate, pH 7.0, 100 mM KCl, 1 mM EDTA, and 0.1% NP40. Digestion reaction were incubated at 37° C. and quenched at specific time points in 6 M urea. Digestion products were analyzed by denaturing polyacrylamide gel electrophoresis. […] Single turnover kinetics were performed as described above with the exception that peptide ranging in concentration from 50 to 500 nM was added to 50 nM of the 9713 RNA, Seq. I.D. No. 7.
Initial rates of cleavage of several single stranded oligonucleotides were determined as described in connection with FIG. 1 with the exception that 50 nM wild-type peptide and 500 nM oligonucleotide were used. […]
I.D. No. 1. […] Reactions were quenched at 30 min. and digestion products analyzed by denaturing polyacrylamide gel electrophoresis.
Initial rates were determined as described in connection with FIG. 2. Peptide structure was determined by SDS PAGE and LC-MS.

single stranded RNA = assay: RNA cleavage (ribonuclease) activity of the peptides
Procedure: as §2
(§3) I.D. No. 1. Digestion reactions were performed as described in FIG. 1 in the presence of either Mg2+ (solid) or Mn2+ (hashed). Reactions were quenched at 30 min. and digestion products analyzed by denaturing polyacrylamide gel electrophoresis.

[3] = system: 20-mer RNA oligonucleotide 9713, Seq. I.D. No. 7; assay: Multiple turnover kinetics of RNA cleavage, Lineweaver-Burk analysis; conditions: zinc-free form of the finger peptide
Procedure: as §2

[4] = system: 2755 (RNA) single stranded oligonucleotide, SEQ ID 5; assay: Initial rate of cleavage of single stranded oligonucleotide by the finger peptide; set-up: unit not given here; conditions: substrate 2755 (RNA); 50 nM wild-type peptide, 500 nM oligonucleotide
Procedure: as §2, §1

[5] = system: 4701 (DNA) single stranded oligonucleotide, SEQ ID 2; assay: as above; set-up: unit not given here; conditions: substrate 4701 (DNA); 50 nM wild-type peptide, 500 nM oligonucleotide
Procedure: as §2, §1

[6] = system: 3058 (RNA) single stranded oligonucleotide, SEQ ID 4; assay: as above; set-up: unit not given here; conditions: substrate 3058 (RNA); 50 nM wild-type peptide, 500 nM oligonucleotide
Procedure: as §2, §1

[7] = system: 12079 (2′-OMe) single stranded oligonucleotide, SEQ ID 3; assay: as above; set-up: unit not given here; conditions: substrate 12079 (2′-OMe); 50 nM wild-type peptide, 500 nM oligonucleotide
Procedure: as §2, §1

[8] = system: 12147 (RNA) single stranded oligonucleotide, SEQ ID 6; assay: as above; set-up: unit not given here; conditions: substrate 12147 (RNA); 50 nM wild-type peptide, 500 nM oligonucleotide
Procedure: as §2, §1

RNA [9] = assay: pH dependence of RNA cleavage; conditions: bell shaped pH profile, pH 4 to 9
Procedure: I.D. No. 1. Initial rates were determined as described in connection with FIG. 2. For each rate determination the pH was adjusted using either 20 mM sodium acetate, pH 4, 20 mM sodium phosphate, pH 5 to pH 8 or 20 mM sodium carbonate, pH 9.

RNA [10] = assay: Effect of divalent cations on RNA cleavage activity; conditions: Mg2+ and Mn2+
Procedure: as §3

[11] = system: RNA substrate 9713, Seq. I.D. No. 7; assay: Cleavage product analysis of RNA substrate
Text: FIG. 3A presents a schematic cleavage product analysis of RNA aubstrate. RNA substrate 9713, Seq. I.D. No. 7, was internally labeled at the penultimate 3′ phosphate using (^32P) cytidine bisphosphate and T4 RNA ligase. The 3′ terminal phosphate was removed using calf intestinal phosphatase and the RNA digested with the wild type peptide as described in the schematic of FIG. 3A. The digestion reactions were divided into equal aliquots and one aliquot subjected to an additional dephosphorylation. The digested products were analyzed by denaturing polyacrylamide gel electrophoresis.

HOOC-KTYQCQYCEY RSADSSNLKTHIKTKHSKEK-NH2 [Wild type]
hydrolysis of non single strand RNA substrates ([1]; listed as SEQ ID No. 1): not hydrolyzed
hydrolysis of non single strand RNA substrates ([1]; listed as the peptide): not degraded
V0 ([2]; substrate 9713 (RNA), 50 nM wild-type peptide, 500 nM oligonucleotide): 6100
V0 (9713) ([2]; substrate 9713 RNA, wild type and mutant peptides): 6000 ± 130
cleavage site specificity within single stranded RNA (single stranded RNA): preferentially cleave 5′-pyr-A-3′
cleavage rate of RNA sequences containing 5′-pyr-A-3′ relative to those without (single stranded RNA; fold faster): 10-30 fold
ribonuclease activity on coordination of the peptide with zinc (single stranded RNA; peptide coordinated with zinc): complete loss of ribonuclease activity
Kcat [3]: 0.96 s⁻¹
Km [3]: 0.105 µM
V0 [3]: 6 nmol/L/min
V0 [4]: 422
V0 [5]: 0
V0 [6]: 153
V0 [7]: 0
V0 [8]: 1200
pH for RNA cleavage (RNA [9]): 7.0
requirement of divalent cations for catalysis (RNA [10]): not to be required for catalysis
termini of RNA cleavage products ([11]; listed as SEQ ID No. 1): 3′-phosphate and 5′-hydroxyl
termini of RNA cleavage products ([11]; listed as wild type peptide): 3′-phosphate and 5′-hydroxyl termini
